Test results reported in ChEMBL document CHEMBL1123729, “Synthesis and biological activity of partially modified retro-inverso pseudopeptide derivatives of the C-terminal tetrapeptide of gastrin” (J Med Chem, 1987).
Active and inactive are the calls of the source. The calls are words filed in the database; no cut-off is given here. Peptide text beside a SMILES is read from it. * marks the point of attachment. Boc = CC(C)(C)OC(=O)*

What was measured:
[1] = test system: Rattus norvegicus; test: Agonistic activity against gastrin induced acid secretion in the anesthetized rats at a dose of 3 mg/kg;*=1/4 of the agonistic activity; type: functional, organism-based; design: dose 3 mg/kg; conditions: filed as partial agonist
[2] = test system: Rattus norvegicus; test: Effective dose required to inhibit gastrin-induced acid secretion in the in situ perfused rat stomach (anesthetized rat); type: functional
[3] = test system: Rattus norvegicus; test: Agonistic activity against gastrin induced acid secretion in the anesthetized rats at a dose of 3 mg/kg; **** indicate full activity of tetragastrin; type: functional, organism-based; design: dose 3 mg/kg; conditions: filed as agonist
[4] = test system: Rattus norvegicus; test: Agonistic activity against gastrin induced acid secretion in the anesthetized rats; No agonist activity at doses as high as 3 mg/kg; type: functional, organism-based; design: dose 3 mg/kg

| SMILES | Agonist activity [1] | ED50 [2] | Agonist activity [3] | Agonist activity [4] |
| --- | --- | --- | --- | --- |
| CCCC[C@@H](NC(=O)[C@H](CC(=O)O)NC(=O)NCc1ccccc1)NC(=O)[C@@H](Cc1c[nH]c2ccccc12)NC(=O)OC(C)(C)C | Partial agonist | 1.1 µmol/kg |  |  |
| CC(C)C[C@H](NC(=O)[C@H](Cc1c[nH]c2ccccc12)NC(=O)OC(C)(C)C)C(=O)N[C@@H](CC(=O)O)C(=O)N[C@@H](Cc1ccccc1)C(N)=O (Boc-WLDF-NH2) |  |  | Agonist |  |
| CC(C)C[C@H](NC(=O)[C@@H](Cc1c[nH]c2ccccc12)NC(=O)OC(C)(C)C)C(=O)N[C@H](CC(=O)O)NC(=O)CCc1ccccc1 |  | 0.15 µmol/kg |  | inactive |
| CC(C)C[C@H](NC(=O)[C@@H](Cc1c[nH]c2ccccc12)NC(=O)OC(C)(C)C)C(=O)N[C@H](CC(=O)O)NC(=O)C(Cc1ccccc1)C(N)=O (some centres not stated) | Partial agonist | 0.3 µmol/kg |  |  |
| CCCN(CCC)C(=O)C(CCC(=O)O)NC(=O)c1ccccc1 (configuration not stated) [PROGLUMIDE] |  | 350 µmol/kg |  | inactive |
| CC(C)C[C@H](NC(=O)[C@H](Cc1c[nH]c2ccccc12)NC(=O)OC(C)(C)C)C(=O)N[C@H](CC(=O)O)NC(=O)NCc1ccccc1 |  | 0.9 µmol/kg |  | inactive |
| CCCCOC(=O)CCNC(=O)[C@H](Cc1c[nH]c2ccccc12)NC(=O)[C@@H](CCCC)NC(=O)[C@H](CC(=O)O)NC(=O)CCc1ccccc1 |  | 10.4 µmol/kg |  |  |
| CCCCOC(=O)CCNC(=O)[C@H](Cc1c[nH]c2ccccc12)NC(=O)[C@@H](CCCC)NC(=O)[C@H](CC(=O)O)NC(=O)NCc1ccccc1 |  |  |  | inactive |
| CC(C)C[C@@H](NC(=O)[C@H](CC(=O)O)NC(=O)C(Cc1ccccc1)C(N)=O)NC(=O)[C@@H](Cc1c[nH]c2ccccc12)NC(=O)OC(C)(C)C (some centres not stated) | Partial agonist | 0.15 µmol/kg |  |  |
| CCCC[C@@H](NC(=O)[C@H](CC(=O)O)NC(=O)CCc1ccccc1)NC(=O)[C@@H](Cc1c[nH]c2ccccc12)NC(=O)OC(C)(C)C | Partial agonist | 2.5 µmol/kg |  |  |
